From PubChem BioAssay (NCI)
“And” between values parts separate entries of the source, which are not always exact repeats. Equal entries are not always repeated.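 Cultured in 96-well plates, cells were exposed to test compound for 48 hours across five concentrations. The concentration for 50% growth inhibition is given as GI50. TGI: total growth inhibition.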

Assays:
Assay in all cases: NCI anticancer screen, dose series, 48 h
COLO 205 colon = system: COLO 205 colon
RXF 393 renal = system: RXF 393 renal
SR leukemia = system: SR leukemia
NCI-H460 lung = system: NCI-H460 lung
RPMI-8226 leukemia = system: RPMI-8226 leukemia
T-47D breast = system: T-47D breast
786-0 renal = system: 786-0 renal
NCI-H23 lung = system: NCI-H23 lung
HCC-2998 colon = system: HCC-2998 colon
MDA-MB-435 = system: MDA-MB-435
HCT-116 colon = system: HCT-116 colon
SK-MEL-28 melanoma = system: SK-MEL-28 melanoma
SF-539 CNS = system: SF-539 CNS
UACC-62 melanoma = system: UACC-62 melanoma
K-562 leukemia = system: K-562 leukemia
BT-549 breast = system: BT-549 breast
SNB-19 CNS = system: SNB-19 CNS
SK-MEL-5 melanoma = system: SK-MEL-5 melanoma
OVCAR-3 ovarian = system: OVCAR-3 ovarian
OVCAR-5 ovarian = system: OVCAR-5 ovarian
OVCAR-8 ovarian = system: OVCAR-8 ovarian
A498 renal = system: A498 renal
SF-268 CNS = system: SF-268 CNS
UACC-257 melanoma = system: UACC-257 melanoma
CAKI-1 renal = system: CAKI-1 renal
SF-295 CNS = system: SF-295 CNS
MOLT-4 leukemia = system: MOLT-4 leukemia
NCI/ADR-RES ovarian = system: NCI/ADR-RES ovarian
HL-60(TB) leukemia = system: HL-60(TB) leukemia
SK-MEL-2 melanoma = system: SK-MEL-2 melanoma
HCT-15 colon = system: HCT-15 colon
HOP-92 NSCLC = system: HOP-92 NSCLC
MCF7 breast = system: MCF7 breast
DU-145 prostate = system: DU-145 prostate
EKVX NSCLC = system: EKVX NSCLC
SK-OV-3 ovarian = system: SK-OV-3 ovarian
ACHN renal = system: ACHN renal
UO-31 renal = system: UO-31 renal
CCRF-CEM leukemia = system: CCRF-CEM leukemia
M14 melanoma = system: M14 melanoma
HOP-62 NSCLC = system: HOP-62 NSCLC
LOX IMVI melanoma = system: LOX IMVI melanoma
NCI-H226 lung = system: NCI-H226 lung
TK-10 renal = system: TK-10 renal
HS 578T breast = system: HS 578T breast
SNB-75 CNS = system: SNB-75 CNS
SW-620 colon = system: SW-620 colon
OVCAR-4 ovarian = system: OVCAR-4 ovarian
MALME-3M melanoma = system: MALME-3M melanoma
SN12C renal = system: SN12C renal
HT29 colon = system: HT29 colon
IGROV1 ovarian = system: IGROV1 ovarian
MDA-MB-231 breast = system: MDA-MB-231 breast
PC-3 prostate = system: PC-3 prostate
U251 CNS = system: U251 CNS
MDA-N = system: MDA-N
KM12 colon = system: KM12 colon
A549 NSCLC = system: A549 NSCLC
NCI-H522 lung = system: NCI-H522 lung

SMILES: c1ccc(-c2cccc(-c3ccccn3)n2)nc1
- GI50 (COLO 205 colon): 37.6 nM
- TGI (COLO 205 colon): 1670 nM and 5840 nM
- TGI (RXF 393 renal): 1410 nM and 7320 nM
- GI50 (SR leukemia): 60 nM
- GI50 (NCI-H460 lung): 60.4 nM
- TGI (NCI-H460 lung): 1350 nM and 2510 nM
- TGI (RPMI-8226 leukemia): > 10000 nM and 95100 nM
- GI50 (T-47D breast): 343 nM
- TGI (T-47D breast): > 10000 nM and 12700 nM
- GI50 (786-0 renal): 113 nM
- TGI (786-0 renal): 2870 nM and 2030 nM
- TGI (NCI-H23 lung): > 10000 nM and 64200 nM
- GI50 (HCC-2998 colon): 94.4 nM
- TGI (MDA-MB-435): 2280 nM and 18400 nM
- TGI (HCT-116 colon): 1560 nM
- GI50 (SK-MEL-28 melanoma): 182 nM
- TGI (SK-MEL-28 melanoma): 3250 nM and 15000 nM
- GI50 (SF-539 CNS): 243 nM
- TGI (SF-539 CNS): 2070 nM and 13300 nM
- GI50 (UACC-62 melanoma): 243 nM
- TGI (UACC-62 melanoma): 2930 nM and 4240 nM
- TGI (K-562 leukemia): > 100000 nM
- GI50 (BT-549 breast): 225 nM
- TGI (BT-549 breast): 13600 nM
- GI50 (SNB-19 CNS): 293 nM
- TGI (SNB-19 CNS): > 10000 nM and 16700 nM
- GI50 (SK-MEL-5 melanoma): 122 nM
- TGI (SK-MEL-5 melanoma): 680 nM and 1180 nM
- GI50 (OVCAR-3 ovarian): 110 nM
- GI50 (OVCAR-5 ovarian): 403 nM
- TGI (OVCAR-5 ovarian): 3720 nM and 22000 nM
- GI50 (OVCAR-8 ovarian): 145 nM
- GI50 (A498 renal): 1380 nM
- TGI (A498 renal): 2310 nM and 3270 nM
- GI50 (SF-268 CNS): 81.4 nM
- TGI (SF-268 CNS): > 10000 nM and 15800 nM
- GI50 (UACC-257 melanoma): 337 nM
- TGI (UACC-257 melanoma): 1650 nM and 5460 nM
- TGI (CAKI-1 renal): 1610 nM
- GI50 (SF-295 CNS): 78.5 nM
- TGI (SF-295 CNS): 791 nM and 3870 nM
- GI50 (MOLT-4 leukemia): 65.8 nM
- TGI (MOLT-4 leukemia): > 100000 nM
- GI50 (NCI/ADR-RES ovarian): 161 nM
- TGI (NCI/ADR-RES ovarian): 1220 nM and 8760 nM
- GI50 (HL-60(TB) leukemia): 112 nM
- GI50 (SK-MEL-2 melanoma): 425 nM
- TGI (SK-MEL-2 melanoma): 3640 nM and 18600 nM
- GI50 (HCT-15 colon): 54.6 nM
- TGI (HCT-15 colon): 1400 nM and 2980 nM
- GI50 (HOP-92 NSCLC): 3570 nM
- TGI (HOP-92 NSCLC): 19800 nM
- TGI (MCF7 breast): > 10000 nM
- GI50 (DU-145 prostate): 86.3 nM
- TGI (DU-145 prostate): 15600 nM
- GI50 (EKVX NSCLC): 111 nM
- TGI (EKVX NSCLC): 4890 nM and 10900 nM
- GI50 (SK-OV-3 ovarian): 89.5 nM
- TGI (SK-OV-3 ovarian): 2050 nM and 2420 nM
- GI50 (ACHN renal): 56.7 nM
- TGI (ACHN renal): 1750 nM and 1890 nM
- GI50 (UO-31 renal): 37.3 nM
- TGI (UO-31 renal): 425 nM and 1290 nM
- GI50 (CCRF-CEM leukemia): 58 nM
- TGI (CCRF-CEM leukemia): > 100000 nM
- GI50 (M14 melanoma): 92.4 nM
- TGI (M14 melanoma): 434 nM and 1070 nM
- GI50 (HOP-62 NSCLC): 130 nM
- TGI (HOP-62 NSCLC): 1720 nM and 12800 nM
- GI50 (LOX IMVI melanoma): 57.3 nM
- TGI (LOX IMVI melanoma): 12500 nM
- GI50 (NCI-H226 lung): 275 nM
- TGI (NCI-H226 lung): 4850 nM
- GI50 (TK-10 renal): 59.5 nM
- TGI (TK-10 renal): 3000 nM and 7890 nM
- GI50 (HS 578T breast): 2550 nM
- TGI (HS 578T breast): > 10000 nM and 47600 nM
- GI50 (SNB-75 CNS): 234 nM
- TGI (SNB-75 CNS): > 10000 nM and 17700 nM
- GI50 (SW-620 colon): 198 nM
- TGI (SW-620 colon): 4540 nM and 14000 nM
- GI50 (OVCAR-4 ovarian): 83.9 nM
- TGI (OVCAR-4 ovarian): 3480 nM and 13700 nM
- TGI (MALME-3M melanoma): 1110 nM and 3480 nM
- GI50 (SN12C renal): 220 nM
- TGI (SN12C renal): 9770 nM and 16200 nM
- GI50 (HT29 colon): 84.8 nM
- TGI (HT29 colon): 3050 nM and 15700 nM
- GI50 (IGROV1 ovarian): 76.5 nM
- TGI (IGROV1 ovarian): 2970 nM and 11700 nM
- GI50 (MDA-MB-231 breast): 86 nM
- TGI (MDA-MB-231 breast): 1890 nM and 15200 nM
- GI50 (PC-3 prostate): 170 nM
- TGI (PC-3 prostate): 3760 nM and 15400 nM
- GI50 (U251 CNS): 90.1 nM
- TGI (U251 CNS): 2860 nM and 13400 nM
- TGI (MDA-N): 2190 nM
- GI50 (KM12 colon): 75.1 nM
- TGI (KM12 colon): 2270 nM and 13700 nM
- GI50 (A549 NSCLC): 225 nM
- TGI (A549 NSCLC): 4910 nM and 13000 nM
- TGI (NCI-H522 lung): > 10000 nM and 19300 nM
